This note sets out measurements from US6894045B2, “Tetrahydropurinones and derivatives thereof as corticotropin releasing factor receptor ligands” (Bristol-Myers Squibb Pharma Company, priority 2001, dated 2005).

One may read the melting point as the temperature of the solid-liquid transition. Regarding `CCc1nc2c(n1Cc1ccc(-c3ccccc3)cc1)C(=O)N(C)CN2c1ccc(Cl)cc1Cl` [Example 21, 7-([1,1′-biphenyl]-4-ylmethyl)-3-(2,4-dichlorophenyl)-8-ethyl-1-methyl-1,2,3,7-tetrahydro-6H-purin-6-one], the melting point was in the range of 216 to 217 °C.

The compound `CCCCC(CC)n1c(CC)nc2c1C(=O)N(C)CN2c1ccc(Cl)cc1Cl` (stereo not shown) [Example 49, 3-(2,4-dichlorophenyl)-8-ethyl-7-(3-heptyl)-1-methyl-1,2,3,7-tetrahydro-6H-purin-6-one] displayed a melting point of 94 to 95 °C.

The compound `CCCC(CCC)n1c(CC)nc2c1C(=O)N(C)C(CC)N2c1ccc(Cl)cc1Cl` (stereo not shown) [Example 6, 3-(2,4-dichlorophenyl)-2,8-diethyl-7-(4-heptyl)-1-methyl-1,2,3,7-tetrahydro-6H-purin-6-one] yielded a melting point of 116.5 to 117.5 °C.

On to `CCCC(CCC)n1c(CC)nc2c1C(=O)N(C)C(C)N2c1ccc(Cl)cc1Cl` (stereo not shown) [Example 5, 3-(2,4-dichlorophenyl)-1,2-dimethyl-8-ethyl-7-(4-heptyl)-1,2,3,7-tetrahydro-6H-purin-6-one], for which the melting point fell in the range of 144 to 145.5 °C.

`CCc1nc2c(n1C(CC)CC)C(=O)N(C)CN2c1ccc(Cl)cc1Cl` [Example 1, 3-(2,4-dichlorophenyl)-8-ethyl-1-methyl-7-(3-pentyl)-1,2,3,7-tetrahydro-6H-purin-6-one] returned a melting point of 132 to 133 °C.

Regarding `CCCC(CCC)n1c(CC)nc2c1C(=O)N(C)CN2c1ccc(Cl)cc1Cl` [Example 2, 3-(2,4-dichlorophenyl)-8-ethyl-7-(4-heptyl)-1-methyl-1,2,3,7-tetrahydro-6H-purin-6-one], the melting point fell in the range of 117 to 118 °C.

For `CCc1nc2c(n1C(CC)CC)C(=O)N(C)C(C)N2c1ccc(Cl)cc1Cl` (stereo not shown) [Example 3, 3-(2,4-dichlorophenyl)-1,2-dimethyl-8-ethyl-7-(3-pentyl)-1,2,3,7-tetrahydro-6H-purin-6-one], the melting point was 135 to 136.5 °C.
